# Assays:
# THP-1 [1] = test: Cytotoxicity against human THP1 cells after 72 hrs by MTT assay; format: cell-based; conditions: THP-1, 72 h
# [2] = system: Trypanosoma brucei brucei; test: Trypanocidal activity against bloodstream forms of Trypanosoma brucei brucei Lister 427 clone 221a after 72 hrs by AlamarBlue assay; format: functional, organism-based
# Leishmania infantum = test: Antileishmanial activity against Leishmania infantum MOM/MA671TMAP263 axenic amastigotes infected in THP1 cells after 72 hrs by luciferase reporter gene assay; format: functional, organism-based; conditions: MOM/MA671TMAP263, THP-1, 72 h
# THP-1 [3] = test: Cytotoxicity against human THP1 cells by AlamarBlue assay
structure (smiles),measurement,setting,value
COc1ccc(/C=C/C(=O)c2c(O)c3ccccc3n(Cc3ccccc3)c2=O)cc1OC,IC50,THP-1 [1],28.7 µM
same,IC50,[2],5.68 µM
same,IC50,Leishmania infantum,> 25 µM
COc1ccc(C2CC(c3c(O)c4ccccc4[nH]c3=O)=NN2c2ccccc2)cc1OC (stereo not drawn),IC50,THP-1 [1],> 50 µM
same,IC50,[2],1.46 µM
same,IC50,Leishmania infantum,13.5 µM
CC(=O)N1N=C(c2c(O)c3ccccc3[nH]c2=O)CC1c1ccccc1C (stereo not drawn),IC50,THP-1 [1],4.15 µM
same,IC50,[2],1.43 µM
same,IC50,Leishmania infantum,0.71 µM
Cc1ccc(/C=C/C(=O)c2c(O)c3ccccc3[nH]c2=O)cc1,IC50,THP-1 [1],> 50 µM
same,IC50,[2],> 10 µM
same,IC50,Leishmania infantum,2.1 µM
Cc1ccccc1/C=C/C(=O)c1c(O)c2ccccc2[nH]c1=O,IC50,THP-1 [1],> 50 µM
same,IC50,[2],2.6 µM
same,IC50,Leishmania infantum,> 50 µM
COc1cc(/C=C/C(=O)c2c(O)c3ccccc3[nH]c2=O)ccc1O,IC50,THP-1 [1],23.3 µM
same,IC50,[2],4.9 µM
same,IC50,Leishmania infantum,11.5 µM
COc1cccc(/C=C/C(=O)c2c(O)c3ccccc3[nH]c2=O)c1,IC50,THP-1 [1],38.5 µM
same,IC50,[2],6.5 µM
same,IC50,Leishmania infantum,28.4 µM
COc1ccc(/C=C/C(=O)c2c(O)c3ccccc3[nH]c2=O)cc1,IC50,THP-1 [1],> 50 µM
same,IC50,[2],> 10 µM
same,IC50,Leishmania infantum,12.7 µM
COc1ccc(/C=C/C(=O)c2c(O)c3ccccc3[nH]c2=O)cc1OC,IC50,THP-1 [1],> 50 µM
same,IC50,[2],4.9 µM
same,IC50,Leishmania infantum,7.5 µM
CC(C)(C)c1cc(/C=C/C(=O)c2c(O)c3ccccc3[nH]c2=O)cc(C(C)(C)C)c1O,IC50,THP-1 [1],26.2 µM
same,IC50,[2],3.3 µM
same,IC50,Leishmania infantum,1.3 µM
O=C(/C=C/c1ccc(C(F)(F)F)cc1)c1c(O)c2ccccc2[nH]c1=O,IC50,THP-1 [1],> 50 µM
same,IC50,[2],> 10 µM
same,IC50,Leishmania infantum,3.1 µM
O=C(/C=C/c1ccc([N+](=O)[O-])cc1)c1c(O)c2ccccc2[nH]c1=O,IC50,THP-1 [1],> 50 µM
same,IC50,[2],> 10 µM
same,IC50,Leishmania infantum,26.9 µM
O=C(O)c1ccc(/C=C/C(=O)c2c(O)c3ccccc3[nH]c2=O)cc1,IC50,THP-1 [1],> 50 µM
same,IC50,[2],> 10 µM
same,IC50,Leishmania infantum,18.4 µM
O=C(/C=C/C=C/c1ccccc1)c1c(O)c2ccccc2[nH]c1=O,IC50,THP-1 [1],> 50 µM
same,IC50,[2],> 10 µM
same,IC50,Leishmania infantum,> 50 µM
CC(/C=C/C(=O)c1c(O)c2ccccc2[nH]c1=O)=C\c1ccccc1,IC50,THP-1 [1],> 50 µM
same,IC50,[2],> 10 µM
same,IC50,Leishmania infantum,20 µM
CCn1c(=O)c(C(=O)/C=C/c2ccccc2C)c(O)c2ccccc21,IC50,THP-1 [1],> 50 µM
same,IC50,[2],> 10 µM
same,IC50,Leishmania infantum,24.8 µM
CCn1c(=O)c(C(=O)/C=C/c2ccc(OC)c(OC)c2)c(O)c2ccccc21,IC50,THP-1 [1],> 50 µM
same,IC50,[2],> 10 µM
same,IC50,Leishmania infantum,> 50 µM
Cc1ccccc1/C=C/C(=O)c1c(O)c2ccccc2n(Cc2ccccc2)c1=O,IC50,THP-1 [1],45.7 µM
same,IC50,[2],6.17 µM
same,IC50,Leishmania infantum,> 25 µM
C[C@@H]1[C@H](O)[C@@H](C)/C=C/C=C/C=C/C=C/C=C/C=C/C=C/[C@H](O[C@@H]2O[C@H](C)[C@@H](O)[C@H](N)[C@@H]2O)C[C@@H]2O[C@](O)(C[C@@H](O)C[C@@H](O)[C@H](O)CC[C@@H](O)C[C@@H](O)CC(=O)O[C@H]1C)C[C@H](O)[C@H]2C(=O)O [AMPHOTERICIN B],IC50,THP-1 [1],23.8 µM
same,IC50,Leishmania infantum,1.2 µM
CC1CS(=O)(=O)CCN1/N=C/c1ccc([N+](=O)[O-])o1 (stereo not drawn) [NIFURTIMOX],IC50,[2],2.9 µM
same,IC50,THP-1 [3],> 100 µM

# — ChEMBL document CHEMBL2440105, “Synthesis and anti-parasitic activity of a novel quinolinone-chalcone series” (Bioorg Med Chem Lett, 2013)
